Assay results taken from PubChem BioAssay AID248 (DTP/NCI, 2004).
Several values for one entry are separate records, joined by “and”; a condition that tells them apart may be missing. Equal values may be shown once. Toxic doses and inconclusive results are not listed.

Tested on: L1210 leukemia ip in BDF1 mice, survival T/C
Assay: NCI In Vivo Anticancer Drug Screen. Data for tumor model L1210 Leukemia (intraperitoneal) in B6D2F1 (BDF1) mice
Conditions: endpoint: mean survival time, higher = longer survival
How it was run: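 Transplantable tumor model; survival measured in treated vs vehicle control mice. Value = treated/control.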

[1] = dose: 100.0 mg/kg/injection, schedule: Q01DX009 (ip), vehicle: saline
[2] = dose: 100.0 mg/kg/injection, schedule: Q04DX003 (ip), vehicle: saline
[3] = dose: 200.0 mg/kg/injection, schedule: Q01DX009 (ip), vehicle: saline
[4] = dose: 200.0 mg/kg/injection, schedule: Q04DX003 (ip), vehicle: saline
[5] = dose: 400.0 mg/kg/injection, schedule: Q01DX009 (ip), vehicle: saline
[6] = dose: 400.0 mg/kg/injection, schedule: Q04DX003 (ip), vehicle: saline
[7] = dose: 50.0 mg/kg/injection, schedule: Q01DX009 (ip), vehicle: saline with Tween-80
[8] = dose: 100.0 mg/kg/injection, schedule: Q01DX009 (ip), vehicle: saline with Tween-80
[9] = dose: 200.0 mg/kg/injection, schedule: Q01DX009 (ip), vehicle: saline with Tween-80
[10] = dose: 100.0 mg/kg/injection, schedule: Q01DX001 (ip), vehicle: saline with Tween-80
[11] = dose: 100.0 mg/kg/injection, schedule: Q04DX002 (ip), vehicle: saline with Tween-80
[12] = dose: 200.0 mg/kg/injection, schedule: Q01DX001 (ip), vehicle: saline with Tween-80
[13] = dose: 200.0 mg/kg/injection, schedule: Q04DX002 (ip), vehicle: saline with Tween-80
[14] = dose: 400.0 mg/kg/injection, schedule: Q01DX001 (ip), vehicle: saline with Tween-80
[15] = dose: 400.0 mg/kg/injection, schedule: Q01DX009 (ip), vehicle: saline with Tween-80
[16] = dose: 400.0 mg/kg/injection, schedule: Q04DX002 (ip), vehicle: saline with Tween-80
[17] = dose: 100.0 mg/kg/injection, schedule: Q01DX001 (ip), vehicle: saline
[18] = dose: 200.0 mg/kg/injection, schedule: Q01DX001 (ip), vehicle: saline
[19] = dose: 400.0 mg/kg/injection, schedule: Q01DX001 (ip), vehicle: saline
[20] = dose: 100.0 mg/kg/injection, schedule: Q04DX003 (ip), vehicle: Klucel (hydroxypropylcellulose) (HPC)
[21] = dose: 200.0 mg/kg/injection, schedule: Q04DX003 (ip), vehicle: Klucel (hydroxypropylcellulose) (HPC)
[22] = dose: 400.0 mg/kg/injection, schedule: Q04DX003 (ip), vehicle: Klucel (hydroxypropylcellulose) (HPC)
[23] = dose: 100.0 mg/kg/injection, schedule: Q04DX003 (ip), vehicle: saline with Tween-80
[24] = dose: 200.0 mg/kg/injection, schedule: Q04DX003 (ip), vehicle: saline with Tween-80
[25] = dose: 400.0 mg/kg/injection, schedule: Q04DX003 (ip), vehicle: saline with Tween-80

CNCCO
T/C [1]: 97 % of control | T/C [2]: 96 % of control | T/C [3]: 92 % of control | T/C [4]: 98 % of control | T/C [5]: 97 % of control | T/C [6]: 102 % of control

CCCN=Cc1cc(Cl)ccc1O.CCCN=Cc1cc(Cl)ccc1O.[Ni]
T/C (dose: 100.0 mg/kg/injection, schedule: Q01DX008 (sc), vehicle: olive oil, sesame oil, peanut oil): 104 % of control | T/C (dose: 200.0 mg/kg/injection, schedule: Q01DX008 (sc), vehicle: olive oil, sesame oil, peanut oil): 98 % of control | T/C (dose: 400.0 mg/kg/injection, schedule: Q01DX008 (sc), vehicle: olive oil, sesame oil, peanut oil): 86 % of control

CC(=O)Nc1ccc(NC(=O)Nc2ccc(C)cc2)cc1
T/C [7]: 90 % of control | T/C [8]: 90 % of control | T/C [9]: 90 % of control

CCCC(=O)Nc1cc(C)ccc1OC
T/C [10]: 94 % of control | T/C [8]: 101 % of control and 90 % of control | T/C [11]: 103 % of control and 92 % of control | T/C [12]: 98 % of control | T/C [9]: 101 % of control and 106 % of control | T/C [13]: 97 % of control and 92 % of control | T/C [14]: 94 % of control | T/C [15]: 97 % of control and 87 % of control | T/C [16]: 95 % of control and 98 % of control

C(CC1CC1)OCOCCC1CC1
T/C [10]: 93 % of control | T/C [12]: 97 % of control

CCC1CCC(NC(=O)N(CCF)N=O)CC1 (configuration not stated)
T/C (dose: 12.0 mg/kg/injection, schedule: Q01DX001 (ip), vehicle: other): 105 % of control | T/C (dose: 18.0 mg/kg/injection, schedule: Q01DX001 (ip), vehicle: other): 114 % of control | T/C (dose: 60.0 mg/kg/injection, schedule: Q01DX001 (ip), vehicle: other): 215 % of control | T/C (dose: 93.0 mg/kg/injection, schedule: Q01DX001 (ip), vehicle: other): 223 % of control

CC(=O)N[Si](C)(C)C
T/C [17]: 102 % of control | T/C [18]: 100 % of control | T/C [19]: 98 % of control

CC(=O)Nc1ccc(OC(=O)Nc2ccc(C)cc2[N+](=O)[O-])cc1
T/C [20]: 91 % of control | T/C [21]: 102 % of control | T/C [22]: 106 % of control

O=C1C(Cl)=C(c2ccccc2)C(=O)C(Cl)=C1c1ccccc1
T/C (dose: 100.0 mg/kg/injection, schedule: Q01DX001 (ip), vehicle: other): 93 % of control | T/C (dose: 200.0 mg/kg/injection, schedule: Q01DX001 (ip), vehicle: other): 88 % of control

OCC12CCCCC1CC1(CC2)OCCO1 (configuration not stated)
T/C [7]: 102 % of control | T/C [8]: 103 % of control | T/C [1]: 100 % of control | T/C [23]: 86 % of control | T/C [2]: 111 % of control | T/C [9]: 96 % of control | T/C [3]: 102 % of control | T/C [24]: 99 % of control | T/C [4]: 106 % of control | T/C [5]: 107 % of control | T/C [6]: 106 % of control

O=C(O)Cc1cccc(S(=O)(=O)F)c1
T/C (dose: 25.0 mg/kg/injection, schedule: Q04DX003 (ip), vehicle: saline with Tween-80): 96 % of control | T/C [7]: 109 % of control | T/C (dose: 50.0 mg/kg/injection, schedule: Q04DX003 (ip), vehicle: saline with Tween-80): 99 % of control | T/C [10]: 96 % of control | T/C [8]: 111 % of control | T/C [11]: 91 % of control | T/C [23]: 99 % of control and 100 % of control | T/C [12]: 92 % of control | T/C [9]: 104 % of control | T/C [13]: 86 % of control | T/C [24]: 105 % of control | T/C [14]: 100 % of control

CCCCCCCCC1CCCC2C(C)CCC(C)C12 (configuration not stated)
T/C (dose: 75.0 mg/kg/injection, schedule: Q01DX001 (ip), vehicle: saline): 96 % of control | T/C (dose: 150.0 mg/kg/injection, schedule: Q01DX001 (ip), vehicle: saline): 95 % of control | T/C (dose: 300.0 mg/kg/injection, schedule: Q01DX001 (ip), vehicle: saline): 104 % of control

CC1=CCCC(C)(C)C1C=C1C(=O)NC(=S)NC1=O (configuration not stated)
T/C (dose: 50.0 mg/kg/injection, schedule: Q01DX009 (ip), vehicle: Klucel (hydroxypropylcellulose) (HPC)): 92 % of control | T/C (dose: 100.0 mg/kg/injection, schedule: Q01DX009 (ip), vehicle: Klucel (hydroxypropylcellulose) (HPC)): 98 % of control | T/C (dose: 200.0 mg/kg/injection, schedule: Q01DX009 (ip), vehicle: Klucel (hydroxypropylcellulose) (HPC)): 109 % of control

O=C1CCCCC(=O)CCCC1
T/C [17]: 102 % of control | T/C [18]: 100 % of control | T/C [19]: 105 % of control

Cc1cccc(C)c1SSc1c(C)cccc1C
T/C (dose: 50.0 mg/kg/injection, schedule: Q04DX002 (ip), vehicle: other): 96 % of control | T/C (dose: 100.0 mg/kg/injection, schedule: Q04DX002 (ip), vehicle: other): 108 % of control | T/C (dose: 200.0 mg/kg/injection, schedule: Q04DX002 (ip), vehicle: other): 101 % of control

Cc1cc(C)c(NS(=O)(=O)c2ccccc2)c([N+](=O)[O-])c1
T/C [11]: 101 % of control | T/C [13]: 104 % of control | T/C [16]: 104 % of control

O=C1OCCN1c1ccccc1
T/C (dose: 100.0 mg/kg/injection, schedule: Q01DX001 (ip), vehicle: Klucel (hydroxypropylcellulose) (HPC)): 90 % of control | T/C [8]: 93 % of control | T/C [23]: 101 % of control | T/C (dose: 200.0 mg/kg/injection, schedule: Q01DX001 (ip), vehicle: Klucel (hydroxypropylcellulose) (HPC)): 87 % of control | T/C [9]: 90 % of control | T/C [24]: 113 % of control | T/C (dose: 400.0 mg/kg/injection, schedule: Q01DX001 (ip), vehicle: Klucel (hydroxypropylcellulose) (HPC)): 100 % of control | T/C [15]: 93 % of control | T/C [25]: 95 % of control

C[C@@H]1CCC([C@@H](C)[C@H]2CC[C@H]3[C@@H]4CC[C@H]5C[C@@H](O)CC[C@]5(C)[C@H]4CC[C@]23C)=NC1
T/C (dose: 1.56 mg/kg/injection, schedule: Q01DX015 (ip), vehicle: saline): 94 % of control | T/C (dose: 3.13 mg/kg/injection, schedule: Q01DX015 (ip), vehicle: saline): 97 % of control | T/C (dose: 6.25 mg/kg/injection, schedule: Q01DX015 (ip), vehicle: saline): 94 % of control | T/C (dose: 12.5 mg/kg/injection, schedule: Q01DX015 (ip), vehicle: saline): 94 % of control | T/C (dose: 12.5 mg/kg/injection, schedule: Q01DX Z (ip), vehicle: saline): 93 % of control | T/C (dose: 25.0 mg/kg/injection, schedule: Q01DX Z (ip), vehicle: saline): 106 % of control | T/C (dose: 50.0 mg/kg/injection, schedule: Q01DX Z (ip), vehicle: saline): 93 % of control | T/C (dose: 100.0 mg/kg/injection, schedule: Q01DX Z (ip), vehicle: saline): 97 % of control | T/C (dose: 125.0 mg/kg/injection, schedule: Q01DX001 (ip), vehicle: saline): 93 % of control

O=C(CBr)c1cccc2c1cc(Br)c1ccccc12
T/C (dose: 13.3 mg/kg/injection, schedule: Q01DX Z (ip), vehicle: methylcellulose (MC)): 94 % of control | T/C (dose: 20.0 mg/kg/injection, schedule: Q01DX Z (ip), vehicle: methylcellulose (MC)): 93 % of control | T/C (dose: 30.0 mg/kg/injection, schedule: Q01DX Z (ip), vehicle: methylcellulose (MC)): 100 % of control

COc1ccc(C2=C(Br)C(=O)C(c3ccc(OC)cc3)=C(Br)C2=O)cc1
T/C [20]: 94 % of control | T/C [21]: 96 % of control | T/C [22]: 98 % of control

CCOc1ccc(/C=N/NC(=O)c2ccccc2NC(=O)C2CC2)cc1OC
T/C [8]: 100 % of control | T/C [23]: 92 % of control | T/C [9]: 92 % of control | T/C [24]: 95 % of control | T/C [15]: 94 % of control | T/C [25]: 90 % of control

O=C(O)c1cc2ccccc2cn1
T/C (dose: 100.0 mg/kg/injection, schedule: Q04DX002 (ip), vehicle: saline): 102 % of control | T/C (dose: 200.0 mg/kg/injection, schedule: Q04DX002 (ip), vehicle: saline): 93 % of control

C=C(Br)CNC(=O)CCC
T/C (dose: 5.0 mg/kg/injection, schedule: Q04DX003 (ip), vehicle: saline): 92 % of control | T/C (dose: 10.0 mg/kg/injection, schedule: Q04DX003 (ip), vehicle: saline): 97 % of control
